Test results published in patent US8552038B2, “Crystalline forms of thiazolidinedione compound and its manufacturing method” (Daiichi Sankyo Company, Limited, priority 2007, dated 2013).
“Also recorded” adds a separate entry of the source. Where a name gives a salt, the structure may show the parent alone. Read-outs that look alike come from different tables or passages of the source. Values belong to the molecule of their own block, whether it stands above or below them.

Assays:
[1] = Solubility test in simulated gastric fluid; format: physicochemical; settings: dihydrochloride; for Solubility: 37° C., after 60 minutes, paddle 250 rpm, free body conversion
Method: Solubilities of Crystalline form A and Crystalline form B of Compound (I) in a simulated gastric fluid were measured by the method below (free body conversion).
10 times concentrated Liquid 1 used for the disintegration test of the Japanese Pharmacopoeia (purchased from Kanto Chemical Co., Inc.) was diluted 10-fold with purified water to give a simulated gastric fluid. Approximately 80 mg of the crystalline form for measurement were precisely measured, transferred to a 25 ml volumetric flask, and dissolved in methanol to bring the total volume to 25 ml. 2 ml of the resulting solution were transferred to a 50 ml volumetric flask, and the simulated gastric fluid was added thereto to bring the total volume to 50 ml to give a standard solution.
By using an elution testing machine NTR-6100A (Toyama Sangyo Co., Ltd.), approximately 100 mg of the subject crystalline form were added to 500 ml of the simulated gastric fluid at 37° C., and agitated with a paddle (250 rpm). After 60 minutes, samples were taken from the test solution. The absorbance of the standard solution and test solution samples was measured at 289 nm and 360 nm by using a UV visible spectrophotometer.
weighing amount of the crystalline form used for the preparation of the standard solution (mg): WS;
absorbance of the standard solution at 289 nm: AS289;
absorbance of the standard solution at 360 nm: AS360;
absorbance of the test solution at 289 nm: AT289;
absorbance of the test solution at 360 nm: AT360;
molecular weight of the dihydrochloride monohydrate of Compound (I): 593.52; and
molecular weight of the free body of Compound (I): 502.58

[2] = target: T1, peroxisome proliferator-activated receptor (PPAR) γ (Homo sapiens, UniProt P37231); settings: disclosed in Patent Literature 1-5; cited from earlier work
T1 sequence (P37231 1-505): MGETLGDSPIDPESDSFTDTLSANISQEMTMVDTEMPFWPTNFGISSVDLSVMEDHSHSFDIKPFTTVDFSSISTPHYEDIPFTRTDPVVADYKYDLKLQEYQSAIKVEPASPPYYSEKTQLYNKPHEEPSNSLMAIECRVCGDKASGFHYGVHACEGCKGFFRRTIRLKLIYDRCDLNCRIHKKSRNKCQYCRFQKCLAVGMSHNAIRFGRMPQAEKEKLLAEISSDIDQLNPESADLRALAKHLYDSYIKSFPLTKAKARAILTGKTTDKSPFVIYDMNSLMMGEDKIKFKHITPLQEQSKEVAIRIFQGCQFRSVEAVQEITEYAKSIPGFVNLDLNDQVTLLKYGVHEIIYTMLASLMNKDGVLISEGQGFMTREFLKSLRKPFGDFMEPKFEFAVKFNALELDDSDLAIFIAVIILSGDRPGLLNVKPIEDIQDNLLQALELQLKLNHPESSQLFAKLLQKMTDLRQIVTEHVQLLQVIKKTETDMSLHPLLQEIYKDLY

[3] = system: human colon cancer cell lines; settings: Test Example 3 in WO 2007/091622; cited from earlier work
cancer cells = settings: cited from earlier work
human leukemia cells = settings: Test Example 2 in WO 2007/091622; cited from earlier work
human kidney cancer = settings: Test Example 7, cited from earlier work
[4] = system: human non-small cell lung cancer; settings: Test Example 5, cited from earlier work
[5] = system: human stomach cancer cells, human breast cancer cells, small cell lung cancer, pancreas cancer cells, prostate cancer cells, kidney cancer cells …; settings: Test Example 1 in WO 2007/091622; cited from earlier work

- Solubility [1]: 76.92 µg/mL
SMILES: Cc1cc(Oc2ccc3nc(COc4ccc(CC5SC(=O)NC5=O)cc4)n(C)c3c2)cc(C)c1N (single isomer, unassigned) [Crystalline form A, monohydrate of 5-(4-{[6-(4-amino-3,5-dimethylphenoxy)-1-methyl-1-H-benzimidazol-2-yl]methoxy}benzyl)-1,3-thiazolidine-2,4-dione dihydrochloride]
- Solubility, assessment in words [1]: sufficient solubility as a pharmaceutical ingredient

- Solubility [1]: 155.25 µg/mL
SMILES: Cc1cc(Oc2ccc3nc(COc4ccc(CC5SC(=O)NC5=O)cc4)n(C)c3c2)cc(C)c1N (single isomer, unassigned) [Crystalline form B, monohydrate of 5-(4-{[6-(4-amino-3,5-dimethylphenoxy)-1-methyl-1-H-benzimidazol-2-yl]methoxy}benzyl)-1,3-thiazolidine-2,4-dione dihydrochloride]
- Solubility, assessment in words [1]: sufficient solubility as a pharmaceutical ingredient; also recorded: higher solubility than the Compound (I) which has been known

SMILES: Cc1cc(Oc2ccc3nc(COc4ccc(CC5SC(=O)NC5=O)cc4)n(C)c3c2)cc(C)c1N (centres unmarked) [Compound (I), 5-(4-{[6-(4-amino-3,5-dimethylphenoxy)-1-methyl-1-H-benzimidazol-2-yl]methoxy}benzyl)-1,3-thiazolidine-2,4-dione]
- ability of PPARγ activation [2]: significant ability of peroxisome proliferator-activated receptor (PPAR) γ activation

SMILES: Cc1cc(Oc2ccc3nc(COc4ccc(CC5SC(=O)NC5=O)cc4)n(C)c3c2)cc(C)c1N (centres unmarked) [dihydrochloride of Compound (I), 5-(4-{[6-(4-amino-3,5-dimethylphenoxy)-1-methyl-1-H-benzimidazol-2-yl]methoxy}benzyl)-1,3-thiazolidine-2,4-dione dihydrochloride]
- antitumor activity in vivo [3]: significant antitumor activity
- activity to suppress proliferation in cancer cells, combination (cancer cells; in combination with a VEGFR inhibitor or a Raf kinase inhibitor, Test Example 6): synergetic activity to suppress proliferation
- activity to suppress proliferation in cancer cells, combination (cancer cells; in combination with an epidermal growth factor receptor (EGFR) inhibitor, Test Example 4): synergetic activity to suppress proliferation
- proliferation suppressing activity in human leukemia cells (human leukemia cells): inhibits significantly proliferation suppressing activity
- antitumor activity (human kidney cancer; alone): exerts an antitumor activity
- antitumor activity, combination (human kidney cancer; in combination with a VEGFR inhibitor or a Raf kinase inhibitor): enhanced antitumor activity
- antitumor activity ([4]; alone): exerts an antitumor activity
- antitumor activity, combination ([4]; in combination with an EGFR inhibitor): enhanced antitumor activity
- activity to suppress proliferation of cancer cells [5]: significant activity to suppress proliferation
